Test results taken from ChEMBL document CHEMBL1201862, “PubChem BioAssay data set” (2004).
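Cultured in 96-well plates, cells were exposed to test compound for 48 hours across five concentrations. At the GI50, growth is halved.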 Calls of active or inactive are those of the source. Cut-off read from the data, not from the text of the source: active = GI50 up to about 1.1 µM and inactive = higher.

How the values were obtained:
Test in all cases: DTP human tumour cell line panel, 48 h
MDA-MB-231 = test system: MDA-MB-231
COLO 205 = test system: COLO 205
U-251 = test system: U-251
Hs-578T = test system: Hs-578T
HCT-116 = test system: HCT-116
T47D = test system: T47D
PC-3 = test system: PC-3
Malme-3M = test system: Malme-3M
SR = test system: SR
K562 = test system: K562
DU-145 = test system: DU-145
SK-OV-3 = test system: SK-OV-3
NCI-H460 = test system: NCI-H460
RPMI-8226 = test system: RPMI-8226
OVCAR-5 = test system: OVCAR-5
OVCAR-3 = test system: OVCAR-3
SW-620 = test system: SW-620
ACHN = test system: ACHN
CAKI-1 = test system: CAKI-1
NCI-H522 = test system: NCI-H522

Row | Compound | GI50 (MDA-MB-231) | GI50 (COLO 205) | GI50 (U-251) | GI50 (Hs-578T) | GI50 (HCT-116) | GI50 (T47D) | GI50 (PC-3) | GI50 (Malme-3M) | GI50 (SR) | GI50 (K562) | GI50 (DU-145) | GI50 (SK-OV-3) | GI50 (NCI-H460) | GI50 (RPMI-8226) | GI50 (OVCAR-5) | GI50 (OVCAR-3) | GI50 (SW-620) | GI50 (ACHN) | GI50 (CAKI-1) | GI50 (NCI-H522)
1 | CC1CN=C(N(Cc2ccccc2)C(=O)Nc2ccc(Cl)c(Cl)c2)S1 (centres undefined) | 27.2 µM (inactive) | 31.4 µM (inactive) | 32.4 µM (inactive) | 53.1 µM (inactive) | 27.7 µM (inactive) | 16.9 µM (inactive) | 31.4 µM (inactive) | 99.3 µM (inactive) | 29.1 µM (inactive) | 21.1 µM (inactive) | 42.7 µM (inactive) | 52.4 µM (inactive) | 35.7 µM (inactive) | 33.7 µM (inactive) | 29.2 µM (inactive) | 50.9 µM (inactive) | 43.5 µM (inactive) | 12.6 µM (inactive) | 36.1 µM (inactive) | 
2 | COc1ccc2c(=O)c3ccoc3[nH]c2c1 | > 100 µM (inactive) | > 100 µM (inactive) | > 100 µM (inactive) | 80.9 µM (inactive) | > 100 µM (inactive) | > 100 µM (inactive) | > 100 µM (inactive) |  | > 100 µM (inactive) | > 100 µM (inactive) | > 100 µM (inactive) | > 100 µM (inactive) | > 100 µM (inactive) | > 100 µM (inactive) |  |  | > 100 µM (inactive) | > 100 µM (inactive) | > 100 µM (inactive) | 
3 | OCCSCc1cc(Cl)cc(Cl)c1O | > 100 µM (inactive) | > 100 µM (inactive) | > 100 µM (inactive) | > 100 µM (inactive) | > 100 µM (inactive) | > 100 µM (inactive) | > 100 µM (inactive) | > 100 µM (inactive) |  | > 100 µM (inactive) | > 100 µM (inactive) | > 100 µM (inactive) | > 100 µM (inactive) | > 100 µM (inactive) | > 100 µM (inactive) | > 100 µM (inactive) | > 100 µM (inactive) | > 100 µM (inactive) | > 100 µM (inactive) | > 100 µM (inactive)
4 | CC(=O)OC1COC(Nn2c(=O)[nH]c3ccccc3c2=O)C(OC(C)=O)C1OC(C)=O (centres undefined) | > 100 µM (inactive) | > 100 µM (inactive) | > 100 µM (inactive) | 13.6 µM (inactive) | > 100 µM (inactive) | 47.1 µM (inactive) | > 100 µM (inactive) |  | > 100 µM (inactive) | > 100 µM (inactive) | > 100 µM (inactive) | > 100 µM (inactive) | > 100 µM (inactive) | > 100 µM (inactive) | > 100 µM (inactive) | > 100 µM (inactive) | > 100 µM (inactive) | > 100 µM (inactive) | > 100 µM (inactive) | 
5 | NC(=O)c1ccc(/N=N/O)nc1 | > 100 µM (inactive) | > 100 µM (inactive) | > 100 µM (inactive) | > 100 µM (inactive) | > 100 µM (inactive) | > 100 µM (inactive) | > 100 µM (inactive) | 0.0755 µM (active) | > 100 µM (inactive) | > 100 µM (inactive) | > 100 µM (inactive) | > 100 µM (inactive) | > 100 µM (inactive) |  | > 100 µM (inactive) | > 100 µM (inactive) | > 100 µM (inactive) | > 100 µM (inactive) | > 100 µM (inactive) | > 100 µM (inactive)
6 | CS(=O)(=O)C[S+]([O-])C[S+]([O-])C[S+]([O-])CC(NC(=O)CCC(N)C(=O)O)C(=O)O (centres undefined) | > 100 µM (inactive) | > 100 µM (inactive) | > 100 µM (inactive) | 51.8 µM (inactive) | > 100 µM (inactive) | > 100 µM (inactive) | > 100 µM (inactive) |  | 16.3 µM (inactive) | > 100 µM (inactive) | > 100 µM (inactive) |  | > 100 µM (inactive) | > 100 µM (inactive) | > 100 µM (inactive) | > 100 µM (inactive) | > 100 µM (inactive) | > 100 µM (inactive) | > 100 µM (inactive) | > 100 µM (inactive)
7 | O=C1C(Cl)=C(NCCF)C(=O)c2ncccc21 | 1.9 µM (inactive) |  | 1.46 µM (inactive) | 1.83 µM (inactive) | 1.76 µM (inactive) | 2.2 µM (inactive) | 1.58 µM (inactive) | 1.57 µM (inactive) | 9.38 µM (inactive) | 0.321 µM (active) | 1.6 µM (inactive) | 2.29 µM (inactive) | 1.65 µM (inactive) | 7.08 µM (inactive) | 1.88 µM (inactive) | 2.03 µM (inactive) | 1.36 µM (inactive) | 2.19 µM (inactive) |  | 
8 | C[C@@H]1[C@H](C)N1CC(O)Cn1ccnc1[N+](=O)[O-] (some centres undefined) | > 100 µM (inactive) | > 100 µM (inactive) | > 100 µM (inactive) | > 100 µM (inactive) | > 100 µM (inactive) | > 100 µM (inactive) | > 100 µM (inactive) | > 100 µM (inactive) | > 100 µM (inactive) | > 100 µM (inactive) | > 100 µM (inactive) | > 100 µM (inactive) | > 100 µM (inactive) |  | > 100 µM (inactive) | > 100 µM (inactive) | > 100 µM (inactive) | > 100 µM (inactive) | > 100 µM (inactive) | > 100 µM (inactive)
9 | Nc1ccn([C@@H]2C=C(CO)[C@@H](O)[C@H]2O)c(=O)n1 | 0.467 µM (active) | 0.198 µM (active) | 0.321 µM (active) | 2.24 µM (inactive) | 0.05 µM (active) | 0.483 µM (active) | 0.0555 µM (active) | 1.86 µM (inactive) | 0.00946 µM (active) | 0.0681 µM (active) | 0.0261 µM (active) | 0.248 µM (active) | 0.0593 µM (active) |  | 1.48 µM (inactive) | 2.2 µM (inactive) | 0.0849 µM (active) | 0.0559 µM (active) | 0.101 µM (active) | 0.6 µM (active)
10 | CC1C/C(=C\c2ccc(OC(=O)C(C)(C)C)cc2)C(=O)/C(=C/c2ccc(OC(=O)C(C)(C)C)cc2)C1 (centres undefined) | 59.3 µM (inactive) | > 100 µM (inactive) | 31 µM (inactive) | 49.3 µM (inactive) | 61.2 µM (inactive) | 59.3 µM (inactive) | 72.4 µM (inactive) | > 100 µM (inactive) | 22.3 µM (inactive) | 84.7 µM (inactive) | > 100 µM (inactive) | > 100 µM (inactive) | > 100 µM (inactive) |  | > 100 µM (inactive) | 68.4 µM (inactive) | > 100 µM (inactive) | 69.3 µM (inactive) | > 100 µM (inactive) | 4.29 µM (inactive)
11 | COc1ccc(-c2oc3c(CC(=O)O)cccc3c(=O)c2OC)cc1 | > 100 µM (inactive) | > 100 µM (inactive) | > 100 µM (inactive) | > 100 µM (inactive) | > 100 µM (inactive) | > 100 µM (inactive) | > 100 µM (inactive) | > 100 µM (inactive) | > 100 µM (inactive) | > 100 µM (inactive) | > 100 µM (inactive) | > 100 µM (inactive) |  |  | > 100 µM (inactive) | > 100 µM (inactive) |  | > 100 µM (inactive) | 21.6 µM (inactive) | > 100 µM (inactive)
12 | O=C1Nc2ccc(Br)cc2/C1=N/NC(=S)Nc1ccc([N+](=O)[O-])cc1 | 16.7 µM (inactive) | 21.7 µM (inactive) | 7.13 µM (inactive) | 14.2 µM (inactive) | 5.35 µM (inactive) | 7.45 µM (inactive) | 7.13 µM (inactive) | 5.98 µM (inactive) | 5.05 µM (inactive) | 9.48 µM (inactive) | 11.9 µM (inactive) | 12.7 µM (inactive) | 5.47 µM (inactive) |  | 13.2 µM (inactive) | 6.65 µM (inactive) | 6.81 µM (inactive) | 5.19 µM (inactive) | 4.06 µM (inactive) | 9.79 µM (inactive)
13 | COc1cc2c(cc1OC)C(C)N(C)c1c-2c(OC(C)=O)cc2cc(OC)c(OC)cc12 (centres undefined) | 5.92 µM (inactive) | 6.43 µM (inactive) | 21.7 µM (inactive) | 19.1 µM (inactive) | 13.9 µM (inactive) | 8.24 µM (inactive) | 14.7 µM (inactive) | 3.72 µM (inactive) |  | 23.4 µM (inactive) | 16.9 µM (inactive) | 27.7 µM (inactive) | 6.38 µM (inactive) | 8.69 µM (inactive) | 36.4 µM (inactive) | 4.29 µM (inactive) | 23.7 µM (inactive) | 17.3 µM (inactive) | 16.1 µM (inactive) | 3.34 µM (inactive)
14 | CC(=S)NC1C(Oc2ccc3c(C)cc(=O)oc3c2)OC(CO)C(O)C1O (centres undefined) | > 100 µM (inactive) |  | > 100 µM (inactive) | > 100 µM (inactive) | > 100 µM (inactive) | > 100 µM (inactive) | > 100 µM (inactive) |  | > 100 µM (inactive) | > 100 µM (inactive) | > 100 µM (inactive) | > 100 µM (inactive) | > 100 µM (inactive) | > 100 µM (inactive) | > 100 µM (inactive) | > 100 µM (inactive) | > 100 µM (inactive) | > 100 µM (inactive) | > 100 µM (inactive) | 
15 | COc1ccc(OC)c(/C=C/c2cnnc3ccccc23)c1 | 9.46 µM (inactive) | 4.1 µM (inactive) | 5.19 µM (inactive) | 1.43 µM (inactive) | 3.4 µM (inactive) | > 10 µM (inactive) | 7.69 µM (inactive) |  | 1.51 µM (inactive) | 2.33 µM (inactive) | > 10 µM (inactive) | 5.5 µM (inactive) | 4.11 µM (inactive) | 3.16 µM (inactive) | > 10 µM (inactive) | 3.94 µM (inactive) | 3.06 µM (inactive) | > 10 µM (inactive) | 4.61 µM (inactive) | 3.66 µM (inactive)
